In US20190292189A1, “LIM KINASE INHIBITORS” (VIRONGY, LLC, priority 2016, published 2019):

Key:
[1] = target: ROCK-II (Homo sapiens, UniProt O75116); assay: ROCK-II biochemical counter-screen; conditions: read-out: ROCK-II IC50
[2] = target: P450 2D6 (Homo sapiens, UniProt P10635); assay: P450 inhibition at 10 μM; type: in vitro ADME
[3] = target: P450 3A4 (Homo sapiens, UniProt P08684); assay: P450 inhibition at 10 μM; type: in vitro ADME
[4] = Microsomal stability, human liver microsomes; type: in vitro ADME
[5] = Microsomal stability, rat liver microsomes; type: in vitro ADME; conditions: rat liver microsomes
[6] = system: HIV-1(NL4-3); type: cell-based; conditions: non-toxic dosages
[7] = system: VEEV (venezuelan equine encephalitis virus); type: cell-based; conditions: Vero cells
[8] = target: T1, AKT2 (Homo sapiens, UniProt P31751); assay: Kinase profiling at 1 μM (Reaction Biology); type: biochemical; conditions: ATP 10 μM
T1 construct: purchased Reaction Biology Corporation
Method: (§1) Profiling was carried out at Reaction Biology Corporation following a protocol described at its website: http://www.reactionbiology.com/webapps/site/. The % data were the average from two determinations. ATP concentration used: 10 μM; Staurosporine was used as the positive control.
(§2) Biochemical assays for all Limk inhibitors and kinase profiling were carried out in Reaction Biology Corporation and followed the protocols described on its website. […] Compounds were tested at 1 μM with duplicate experiments in profiling assays. […] Reactions were carried out at 10 μM ATP, 1 μM substrate cofilin, and 50 nM Limk1 (final concentrations).

[9] = target: T2, ALK (Homo sapiens, UniProt Q9UM73); assay: Kinase profiling at 1 μM (Reaction Biology); type: biochemical; conditions: ATP 10 μM
T2 construct: purchased Reaction Biology Corporation
Method: as §1, §2

[10] = target: T3, AMPK(A1/B1/G1) (Homo sapiens, UniProt Q13131); assay: Kinase profiling at 1 μM (Reaction Biology); type: biochemical; conditions: ATP 10 μM
T3 construct: purchased Reaction Biology Corporation
Method: as §1, §2

[11] = target: T4, Aurora A (Homo sapiens, UniProt O14965); assay: Kinase profiling at 1 μM (Reaction Biology); type: biochemical; conditions: ATP 10 μM
T4 construct: purchased Reaction Biology Corporation
Method: as §1, §2

[12] = target: T5, CK2a (Homo sapiens, UniProt P68400); assay: Kinase profiling at 1 μM (Reaction Biology); type: biochemical; conditions: ATP 10 μM
T5 construct: purchased Reaction Biology Corporation
Method: as §1, §2

[13] = target: T6, DAPK1 (Homo sapiens, UniProt P53355); assay: Kinase profiling at 1 μM (Reaction Biology); type: biochemical; conditions: ATP 10 μM
T6 construct: purchased Reaction Biology Corporation
Method: as §1, §2

[14] = target: T7, EGFR (Homo sapiens, UniProt P00533); assay: Kinase profiling at 1 μM (Reaction Biology); type: biochemical; conditions: ATP 10 μM
T7 construct: purchased Reaction Biology Corporation
Method: as §1, §2

[15] = target: T8, FLT3 (Homo sapiens, UniProt P36888); assay: Kinase profiling at 1 μM (Reaction Biology); type: biochemical; conditions: ATP 10 μM
T8 construct: purchased Reaction Biology Corporation
Method: as §1, §2

[16] = target: T9, G5K3b (Homo sapiens, UniProt P49841); assay: Kinase profiling at 1 μM (Reaction Biology); type: biochemical; conditions: ATP 10 μM
T9 construct: purchased Reaction Biology Corporation
Method: as §1, §2

[17] = target: T10, IGFIR (Homo sapiens, UniProt P08069); assay: Kinase profiling at 1 μM (Reaction Biology); type: biochemical; conditions: ATP 10 μM
T10 construct: purchased Reaction Biology Corporation
Method: as §1, §2

[18] = target: T11, IKKa/CHUK (Homo sapiens, UniProt O15111); assay: Kinase profiling at 1 μM (Reaction Biology); type: biochemical; conditions: ATP 10 μM
T11 construct: purchased Reaction Biology Corporation
Method: as §1, §2

[19] = target: T12, IKKb/IKBKB (Homo sapiens, UniProt O14920); assay: Kinase profiling at 1 μM (Reaction Biology); type: biochemical; conditions: ATP 10 μM
T12 construct: purchased Reaction Biology Corporation
Method: as §1, §2

[20] = target: T13, IKKe/IKBKE (Homo sapiens, UniProt Q14164); assay: Kinase profiling at 1 μM (Reaction Biology); type: biochemical; conditions: ATP 10 μM
T13 construct: purchased Reaction Biology Corporation
Method: as §1, §2

[21] = target: T14, JAK3 (Homo sapiens, UniProt P52333); assay: Kinase profiling at 1 μM (Reaction Biology); type: biochemical; conditions: ATP 10 μM
T14 construct: purchased Reaction Biology Corporation
Method: as §1, §2

[22] = target: T15, JNK1 (Homo sapiens, UniProt P45983); assay: Kinase profiling at 1 μM (Reaction Biology); type: biochemical; conditions: ATP 10 μM
T15 construct: purchased Reaction Biology Corporation
Method: as §1, §2

[23] = target: JNK3 (Homo sapiens, UniProt P53779); assay: Kinase profiling at 1 μM (Reaction Biology); type: biochemical; conditions: ATP 10 μM
Method: as §1, §2

[24] = target: T16, KDR/VEGFR2 (Homo sapiens, UniProt P35968); assay: Kinase profiling at 1 μM (Reaction Biology); type: biochemical; conditions: ATP 10 μM
T16 construct: purchased Reaction Biology Corporation
Method: as §1, §2

[25] = target: T17, NEK1 (Homo sapiens, UniProt Q96PY6); assay: Kinase profiling at 1 μM (Reaction Biology); type: biochemical; conditions: ATP 10 μM
T17 construct: purchased Reaction Biology Corporation
Method: as §1, §2

[26] = target: T18, P38a/MAPK14 (Homo sapiens, UniProt Q16539); assay: Kinase profiling at 1 μM (Reaction Biology); type: biochemical; conditions: ATP 10 μM
T18 construct: purchased Reaction Biology Corporation
Method: as §1, §2

[27] = target: T19, PDGFRb (Homo sapiens, UniProt P09619); assay: Kinase profiling at 1 μM (Reaction Biology); type: biochemical; conditions: ATP 10 μM
T19 construct: purchased Reaction Biology Corporation
Method: as §1, §2

[28] = target: T20, PIM2 (Homo sapiens, UniProt Q9P1W9); assay: Kinase profiling at 1 μM (Reaction Biology); type: biochemical; conditions: ATP 10 μM
T20 construct: purchased Reaction Biology Corporation
Method: as §1, §2

[29] = target: T21, PKA (Homo sapiens, UniProt P17612); assay: Kinase profiling at 1 μM (Reaction Biology); type: biochemical; conditions: ATP 10 μM
T21 construct: purchased Reaction Biology Corporation
Method: as §1, §2

[30] = target: T22, R5K1 (Homo sapiens, UniProt Q15418); assay: Kinase profiling at 1 μM (Reaction Biology); type: biochemical; conditions: ATP 10 μM
T22 construct: purchased Reaction Biology Corporation
Method: as §1, §2

[31] = target: T23, ROCK2 (Homo sapiens, UniProt O75116); assay: Kinase profiling at 1 μM (Reaction Biology); type: biochemical; conditions: ATP 10 μM
T23 construct: purchased Reaction Biology Corporation
Method: as §1, §2

[32] = target: T24, SLK/STK2 (Homo sapiens, UniProt Q9H2G2); assay: Kinase profiling at 1 μM (Reaction Biology); type: biochemical; conditions: ATP 10 μM
T24 construct: purchased Reaction Biology Corporation
Method: as §1, §2

[33] = target: T25, STK16 (Homo sapiens, UniProt O75716); assay: Kinase profiling at 1 μM (Reaction Biology); type: biochemical; conditions: ATP 10 μM
T25 construct: purchased Reaction Biology Corporation
Method: as §1, §2

[34] = target: T26, TAOK1 (Homo sapiens, UniProt Q7L7X3); assay: Kinase profiling at 1 μM (Reaction Biology); type: biochemical; conditions: ATP 10 μM
T26 construct: purchased Reaction Biology Corporation
Method: as §1, §2

[35] = target: T27, c-5rc (Homo sapiens, UniProt P12931); assay: Kinase profiling at 1 μM (Reaction Biology); type: biochemical; conditions: ATP 10 μM
T27 construct: purchased Reaction Biology Corporation
Method: as §1, §2

[36] = target: T28, c-Kit (Homo sapiens, UniProt P10721); assay: Kinase profiling at 1 μM (Reaction Biology); type: biochemical; conditions: ATP 10 μM
T28 construct: purchased Reaction Biology Corporation
Method: as §1, §2

[37] = target: T29, c-MET (Homo sapiens, UniProt P08581); assay: Kinase profiling at 1 μM (Reaction Biology); type: biochemical; conditions: ATP 10 μM
T29 construct: purchased Reaction Biology Corporation
Method: as §1, §2

T23 sequence (O75116 whole entry): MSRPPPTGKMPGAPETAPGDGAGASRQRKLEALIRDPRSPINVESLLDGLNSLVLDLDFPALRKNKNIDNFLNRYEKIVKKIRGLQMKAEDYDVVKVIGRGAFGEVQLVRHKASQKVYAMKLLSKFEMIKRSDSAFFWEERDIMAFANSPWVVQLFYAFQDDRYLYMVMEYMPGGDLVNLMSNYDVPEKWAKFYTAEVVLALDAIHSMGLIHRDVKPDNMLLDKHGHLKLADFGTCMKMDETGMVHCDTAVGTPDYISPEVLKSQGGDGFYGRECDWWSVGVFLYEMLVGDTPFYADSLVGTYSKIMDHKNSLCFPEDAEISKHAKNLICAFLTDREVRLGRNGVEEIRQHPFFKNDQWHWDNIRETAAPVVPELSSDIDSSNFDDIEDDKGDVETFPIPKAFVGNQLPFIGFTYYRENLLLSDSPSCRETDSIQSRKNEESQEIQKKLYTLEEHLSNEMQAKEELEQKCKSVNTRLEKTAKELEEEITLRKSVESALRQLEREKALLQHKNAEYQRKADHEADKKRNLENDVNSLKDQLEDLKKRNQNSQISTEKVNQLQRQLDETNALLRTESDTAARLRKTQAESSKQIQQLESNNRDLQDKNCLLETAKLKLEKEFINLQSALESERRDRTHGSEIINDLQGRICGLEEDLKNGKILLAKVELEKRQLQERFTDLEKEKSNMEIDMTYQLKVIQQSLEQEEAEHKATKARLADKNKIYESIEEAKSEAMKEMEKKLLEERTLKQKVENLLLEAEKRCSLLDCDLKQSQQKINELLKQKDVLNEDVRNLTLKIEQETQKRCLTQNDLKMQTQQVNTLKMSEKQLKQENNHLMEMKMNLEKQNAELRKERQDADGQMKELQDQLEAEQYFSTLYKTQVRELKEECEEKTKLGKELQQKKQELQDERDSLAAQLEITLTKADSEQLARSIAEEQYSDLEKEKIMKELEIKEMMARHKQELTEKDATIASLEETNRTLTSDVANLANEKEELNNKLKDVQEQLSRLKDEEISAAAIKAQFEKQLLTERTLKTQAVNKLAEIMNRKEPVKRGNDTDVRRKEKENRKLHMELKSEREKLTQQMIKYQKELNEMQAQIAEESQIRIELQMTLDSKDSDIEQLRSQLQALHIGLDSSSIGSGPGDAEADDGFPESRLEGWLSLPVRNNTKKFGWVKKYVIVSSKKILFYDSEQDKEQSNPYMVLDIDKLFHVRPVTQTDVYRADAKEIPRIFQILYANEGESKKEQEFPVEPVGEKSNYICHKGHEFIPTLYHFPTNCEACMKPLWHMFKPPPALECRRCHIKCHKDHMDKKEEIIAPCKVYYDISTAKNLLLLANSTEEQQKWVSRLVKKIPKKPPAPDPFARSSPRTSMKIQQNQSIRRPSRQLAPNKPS
ROCK-II, sequence (O75116 whole entry, species assumed): as the sequence (O75116 whole entry) above
P450 2D6, sequence (P10635 whole entry): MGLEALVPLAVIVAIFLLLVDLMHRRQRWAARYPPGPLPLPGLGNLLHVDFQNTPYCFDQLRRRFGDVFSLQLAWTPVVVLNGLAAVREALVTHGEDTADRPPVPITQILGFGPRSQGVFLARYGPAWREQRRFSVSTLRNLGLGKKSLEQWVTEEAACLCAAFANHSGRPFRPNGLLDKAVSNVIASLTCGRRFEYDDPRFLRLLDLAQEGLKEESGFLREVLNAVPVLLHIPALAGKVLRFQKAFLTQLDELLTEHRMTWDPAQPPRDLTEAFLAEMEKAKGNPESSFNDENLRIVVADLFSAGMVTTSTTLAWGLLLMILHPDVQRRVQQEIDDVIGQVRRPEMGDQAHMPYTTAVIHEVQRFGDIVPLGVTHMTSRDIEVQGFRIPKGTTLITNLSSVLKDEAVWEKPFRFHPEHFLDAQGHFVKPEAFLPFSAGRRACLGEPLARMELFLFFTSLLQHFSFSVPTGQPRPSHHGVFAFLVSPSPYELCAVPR
T29 sequence (P08581 25-1390): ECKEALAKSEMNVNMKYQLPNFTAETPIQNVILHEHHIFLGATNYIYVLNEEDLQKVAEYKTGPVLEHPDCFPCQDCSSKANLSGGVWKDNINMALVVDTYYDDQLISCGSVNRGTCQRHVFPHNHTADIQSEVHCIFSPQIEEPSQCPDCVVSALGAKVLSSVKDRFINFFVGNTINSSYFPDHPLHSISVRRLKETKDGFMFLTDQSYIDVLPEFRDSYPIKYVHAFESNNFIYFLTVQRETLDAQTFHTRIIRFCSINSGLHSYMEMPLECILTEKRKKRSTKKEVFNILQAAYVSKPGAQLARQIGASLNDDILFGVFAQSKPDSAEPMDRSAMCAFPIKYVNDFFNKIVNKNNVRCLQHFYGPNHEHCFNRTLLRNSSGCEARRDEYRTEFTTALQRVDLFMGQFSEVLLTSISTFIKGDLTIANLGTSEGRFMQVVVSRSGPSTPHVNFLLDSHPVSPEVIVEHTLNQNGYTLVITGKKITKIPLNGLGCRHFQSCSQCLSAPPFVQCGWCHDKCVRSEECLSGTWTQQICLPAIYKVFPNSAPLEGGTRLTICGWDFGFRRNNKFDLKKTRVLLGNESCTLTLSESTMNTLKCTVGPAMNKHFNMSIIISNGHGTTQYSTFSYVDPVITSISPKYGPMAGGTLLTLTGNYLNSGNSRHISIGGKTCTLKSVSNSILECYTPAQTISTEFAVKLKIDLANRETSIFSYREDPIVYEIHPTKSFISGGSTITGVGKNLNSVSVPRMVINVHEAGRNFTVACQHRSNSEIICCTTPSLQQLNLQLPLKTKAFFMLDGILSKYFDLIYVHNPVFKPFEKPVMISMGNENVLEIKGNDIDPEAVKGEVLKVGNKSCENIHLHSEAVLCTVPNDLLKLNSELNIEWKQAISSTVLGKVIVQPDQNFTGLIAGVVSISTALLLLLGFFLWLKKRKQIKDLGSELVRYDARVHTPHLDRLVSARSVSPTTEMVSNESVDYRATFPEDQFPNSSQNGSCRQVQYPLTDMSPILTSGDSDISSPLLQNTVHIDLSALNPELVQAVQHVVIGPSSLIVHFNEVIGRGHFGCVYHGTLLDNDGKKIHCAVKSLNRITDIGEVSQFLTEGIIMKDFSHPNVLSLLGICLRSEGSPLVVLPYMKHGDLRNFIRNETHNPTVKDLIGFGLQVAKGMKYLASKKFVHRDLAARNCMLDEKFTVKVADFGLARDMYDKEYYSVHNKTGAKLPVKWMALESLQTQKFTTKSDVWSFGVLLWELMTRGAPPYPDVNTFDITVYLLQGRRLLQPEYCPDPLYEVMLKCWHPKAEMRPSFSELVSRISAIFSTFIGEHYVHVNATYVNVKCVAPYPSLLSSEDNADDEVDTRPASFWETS
T26 sequence (Q7L7X3 whole entry): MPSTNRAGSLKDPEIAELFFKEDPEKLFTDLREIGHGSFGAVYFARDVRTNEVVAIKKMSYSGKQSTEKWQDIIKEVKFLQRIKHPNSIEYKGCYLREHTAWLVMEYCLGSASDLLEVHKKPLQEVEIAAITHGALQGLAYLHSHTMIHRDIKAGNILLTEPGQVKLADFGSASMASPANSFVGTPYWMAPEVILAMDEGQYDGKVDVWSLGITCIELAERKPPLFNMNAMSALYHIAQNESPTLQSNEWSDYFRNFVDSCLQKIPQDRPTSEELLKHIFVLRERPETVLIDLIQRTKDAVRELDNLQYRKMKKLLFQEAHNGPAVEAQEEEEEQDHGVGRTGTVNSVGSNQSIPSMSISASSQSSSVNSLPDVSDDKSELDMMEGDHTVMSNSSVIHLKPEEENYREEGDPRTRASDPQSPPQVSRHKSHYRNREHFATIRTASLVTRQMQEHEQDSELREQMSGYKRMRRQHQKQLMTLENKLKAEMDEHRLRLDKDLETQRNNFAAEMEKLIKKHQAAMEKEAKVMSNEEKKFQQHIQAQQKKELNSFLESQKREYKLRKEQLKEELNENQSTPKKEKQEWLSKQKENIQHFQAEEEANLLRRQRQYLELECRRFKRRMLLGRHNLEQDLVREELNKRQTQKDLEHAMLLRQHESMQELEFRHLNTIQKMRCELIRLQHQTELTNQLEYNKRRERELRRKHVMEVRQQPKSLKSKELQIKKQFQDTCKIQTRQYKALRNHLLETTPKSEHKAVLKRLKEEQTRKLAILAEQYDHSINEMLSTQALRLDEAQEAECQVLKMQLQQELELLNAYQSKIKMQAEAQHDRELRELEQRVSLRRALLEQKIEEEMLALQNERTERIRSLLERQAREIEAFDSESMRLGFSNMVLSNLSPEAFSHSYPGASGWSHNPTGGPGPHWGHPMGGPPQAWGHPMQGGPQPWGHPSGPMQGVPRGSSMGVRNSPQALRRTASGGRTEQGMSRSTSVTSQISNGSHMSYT
T13 sequence (Q14164 whole entry): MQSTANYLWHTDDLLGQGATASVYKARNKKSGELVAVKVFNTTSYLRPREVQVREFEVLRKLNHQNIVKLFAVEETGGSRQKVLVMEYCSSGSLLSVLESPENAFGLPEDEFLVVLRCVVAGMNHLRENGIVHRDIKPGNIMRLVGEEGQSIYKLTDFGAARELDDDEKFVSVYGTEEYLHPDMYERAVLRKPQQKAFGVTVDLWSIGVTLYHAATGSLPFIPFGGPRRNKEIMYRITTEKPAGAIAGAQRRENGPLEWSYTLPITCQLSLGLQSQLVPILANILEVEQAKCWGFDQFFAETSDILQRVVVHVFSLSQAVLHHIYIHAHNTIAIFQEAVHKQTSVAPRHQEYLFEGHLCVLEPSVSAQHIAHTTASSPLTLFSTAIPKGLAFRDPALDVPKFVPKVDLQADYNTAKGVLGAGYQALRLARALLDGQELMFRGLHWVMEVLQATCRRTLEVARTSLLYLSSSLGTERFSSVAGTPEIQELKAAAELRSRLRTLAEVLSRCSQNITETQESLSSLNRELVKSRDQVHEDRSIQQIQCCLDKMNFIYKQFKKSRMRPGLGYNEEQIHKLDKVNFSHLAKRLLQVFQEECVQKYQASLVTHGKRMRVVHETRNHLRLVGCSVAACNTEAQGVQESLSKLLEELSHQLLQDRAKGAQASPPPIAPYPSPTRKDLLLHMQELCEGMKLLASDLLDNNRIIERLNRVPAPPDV

Cc1c[nH]c2ncnc(-c3ccc(NC(=O)N(CCO)c4ccccc4)cc3)c12 [Compound 18b, 1-(2-Hydroxyethyl)-3-(4-(5-methyl-7H-pyrrolo[2,3-d]pyrimidin-4-yl)phenyl)-1-phenylurea]
IC50 [1]: 6.57 µM
P450 % inh. at 10 μM 2D6 [2]: 5%
P450 % inh. at 10 μM 3A4 [3]: 13%
Microsomal Stability t1/2 (min) Human [4]: 87 min
Microsomal Stability t1/2 (min) Rat [5]: 30 min

COC(=O)c1ccc2[nH]c(C3CCN(c4ncnc5[nH]cc(Cl)c45)CC3)nc2c1 [Compound R10015, Methyl 2-(1-(5-chloro-7H-pyrrolo[2,3-d]pyrimidin-4-yl)piperidin-4-yl)-1Hbenzo[d]imidazole-5-carboxylate]
X4 viral infection of blood resting CD4 T cells [6]: inhibition
VEEV infection [7]: inhibited
activity at 1 µM [8]: 73.1%
activity at 1 µM [9]: 95.5%
activity at 1 µM [10]: 76.6%
activity at 1 µM [11]: 60.3%
activity at 1 µM [12]: 94.2%
activity at 1 µM [13]: 87.8%
activity at 1 µM [14]: 93.2%
activity at 1 µM [15]: 32.2%
activity at 1 µM [16]: 67.8%
activity at 1 µM [17]: 90%
activity at 1 µM [18]: 90.5%
activity at 1 µM [19]: 85.1%
activity at 1 µM [20]: 84.1%
activity at 1 µM [21]: 61.1%
activity at 1 µM [22]: 95.2%
activity at 1 µM [23]: 85.7%
activity at 1 µM [24]: 87.2%
activity at 1 µM [25]: 67.2%
activity at 1 µM [26]: 98.6%
activity at 1 µM [27]: 78.6%
activity at 1 µM [28]: 97.6%
activity at 1 µM [29]: 24%
activity at 1 µM [30]: 47.2%
activity at 1 µM [31]: 29.5%
activity at 1 µM [32]: 108%
activity at 1 µM [33]: 48.6%
activity at 1 µM [34]: 54%
activity at 1 µM [35]: 92.4%
activity at 1 µM [36]: 81.3%
activity at 1 µM [37]: 82.1%
